Results as given in patent US12624020B2, “Compositions and methods for preparing and using azetidines” (University of Virginia Patent Foundation, priority 2018, dated 2026).
“Also recorded” adds a separate entry of the source. One block for each molecule: values may come before it.

What was measured:
recombinant rat DGKα [1] = biological target: T1, recombinant rat DGKα (Rattus norvegicus, UniProt P51556); assay: Competitive ABPP gel assay using TH071; format: binding; conditions: Na2S4 1 hr, TH071 as probe
T1 construct: expressed in transfected cells; host or cells: HEK293T
Method: (§1) Continuing with the benzimidazole azetidine, we appended different alkyne tags via reductive amination or HATU coupling to observe the effects of N-substituents on the ring (Scheme 1 above). Soluble and membrane HEK293T cell proteomes were treated with 25 μM of azetidine compounds for one hour before addition of rhodamine via CLICK chemistry, i.e., copper catalyzed azide-alkyne cycloaddition (CuAAC). After the proteins were resolved via SDS-PAGE, we discovered a robust and unique binding profile from the azetidine probes (FIG. 2 and FIG. 3).
(§2) T-cells require endogenous H2S to activate and proliferate. Cystathionine β-synthase (CBS) and Cystathionine γ-lyase (CSE) are two proteins responsible for generating H2S, and previous studies have shown how knockdown of these proteins can drastically impair T-cell function. We initially tested if DGKα was affected by sulfur donors in a recombinant system. Thus, HEK293T cells expressing recombinant rat DGKα were treated with Na2S4 for 1 hr for luminescent ADP detection assay (ADP-Glo) and ABPP experiments. The activity of the rat isoform in our ADP-Glo™ assay (Promega Corporation) decreased by 40% at 10 μM 30% at 1 μM of the sulfur donor.

DGK [2] = assay: Substrate assay (ADP-Glo) on second DGK isoform; format: cell-based; conditions: tested in a similar manner as DGKα
recombinant rat DGKα [3] = biological target: T1, recombinant rat DGKα; assay: ADP-Glo luminescent ADP detection assay; format: cell-based; conditions: 1 hr, HEK293T cells expressing recombinant rat DGKα
Method: as §2

[4] = Evaluation of ring-opening under biological conditions with cysteine (LC-MS/MS); format: physicochemical; conditions: cysteine 1.5 mmol eq., 37° C., 24 hrs, PBS and DMF (5:1)
Method: (§3) An exemplary azetidine compound (RLM207) was dissolved in deuterated PBS with either cysteine (1.5 mmol eq.) or glutathione (1.5 mmol eq.), and incubated at 37° C. for 24 hrs in phosphate-buffered saline and DMF (5:1). To observe if any products formed between the RLM207 and biological nucleophiles, high-resolution LC-MS/MS was used to analyze the two reactions. Samples were desalted on a STAGE-Tip C^18 column and dissolved in mobile phase A (0.1% formic acid) for LC-MS/MS analysis. […] Thus, at 24.46 min, there appeared a peak with an M+1 mass of 547.2336 m/z corresponding to the covalent product.
(§4) Ring-opening reactions of azetidines typically employ harsh conditions that are not amenable to biological samples, such as strong acids and organic solvents^12-15. Our discovery was the first indication that azetidines form covalent products with a tripeptide.

[5] = Evaluation of ring-opening under biological conditions with glutathione (LC-MS/MS); format: physicochemical; conditions: glutathione 1.5 mmol eq., 37° C., 24 hrs, PBS and DMF (5:1), MS2
Method: as §3, §4

[6] = system: Soluble and membrane HEK293T cell proteomes; assay: Gel assay (gel ABPP): protein binding, rhodamine CuAAC, SDS-PAGE fluorescence; set-up: species or system human; conditions: 25 μM, one hour
Method: (§5) FIG. 2. Structure activity relationship studies of some azetidine compounds of the present disclosure and their reactivity. Cell lysates were incubated with the indicate azetidine compounds for 1 hr for gel experiments and 3 hrs for LC-MS/MS experiments. Rhodamine or desthiobiotin tags were appended to the probe for gel and mass spectrometry experiments, respectively, by copper-catalyzed azide-alkyne cycloaddition, i.e., CLICK chemistry.
as §1

DGK [7] = assay: Gel labeling of second DGK isoform by probe; format: binding; conditions: gel assay
Method: as §1, §2

HEK lysates = assay: LC-MS/MS identification of azetidine-tagged proteins/peptides (desthiobiotin azide enrichment); format: binding, human
Method: as §5
Our initial attempts to enrich for azetidine-bound peptides were not optimal when we treated HEK lysates with only 25 μM of azetidine compound, illustrated by TH071. While we could easily observe protein bands by gel fluorescence, we were not saturating the proteome.
(§6) Next, isotopically labeled proteins were obtained through routine procedures using labeled amino acids, and the proteins were then reacted with TH071 for 3 hrs before click chemistry with desthiobiotin azide for 2 hours. Proteins were digested by trypsin into peptides before azetidine-bound peptides were enriched via affinity chromatography. Eluted peptides were analyzed by high resolution LC-MS/MS using a top 10 data-dependent acquisition (DDA). An added mass of 631.3858 Da was used to search for azetidine modifications to amino acid residues. Peptides were quantified between samples by measuring the integration of MS1 peaks between heavy and light peptides, and were sequenced by manual verification of MS2 fragmentation spectra. […] Sulfhydration modifications are a form of cysteine oxidation after the reaction with H2S to form a persulfide (S—SH).

[8] = biological target: recombinant mammalian DGKα (Rattus norvegicus, UniProt P51556); assay: LC-MS/MS enrichment of azetidine-bound peptides on recombinant DGKα; format: binding
Method: as §6
Due to the lipophilic nature of azetidines, we also tested TH071 on recombinant mammalian DGKα and enriched for four peptides that were unique to this azetidine compound. Of these sites, two are located adjacent to the active site, one within the catalytic domain, and another in the zinc finger domain. […] DGKs […] the interconversion of diacylglycerol (DAG) to phosphatidic acid (PA). […]

T1 sequence (P51556 whole entry): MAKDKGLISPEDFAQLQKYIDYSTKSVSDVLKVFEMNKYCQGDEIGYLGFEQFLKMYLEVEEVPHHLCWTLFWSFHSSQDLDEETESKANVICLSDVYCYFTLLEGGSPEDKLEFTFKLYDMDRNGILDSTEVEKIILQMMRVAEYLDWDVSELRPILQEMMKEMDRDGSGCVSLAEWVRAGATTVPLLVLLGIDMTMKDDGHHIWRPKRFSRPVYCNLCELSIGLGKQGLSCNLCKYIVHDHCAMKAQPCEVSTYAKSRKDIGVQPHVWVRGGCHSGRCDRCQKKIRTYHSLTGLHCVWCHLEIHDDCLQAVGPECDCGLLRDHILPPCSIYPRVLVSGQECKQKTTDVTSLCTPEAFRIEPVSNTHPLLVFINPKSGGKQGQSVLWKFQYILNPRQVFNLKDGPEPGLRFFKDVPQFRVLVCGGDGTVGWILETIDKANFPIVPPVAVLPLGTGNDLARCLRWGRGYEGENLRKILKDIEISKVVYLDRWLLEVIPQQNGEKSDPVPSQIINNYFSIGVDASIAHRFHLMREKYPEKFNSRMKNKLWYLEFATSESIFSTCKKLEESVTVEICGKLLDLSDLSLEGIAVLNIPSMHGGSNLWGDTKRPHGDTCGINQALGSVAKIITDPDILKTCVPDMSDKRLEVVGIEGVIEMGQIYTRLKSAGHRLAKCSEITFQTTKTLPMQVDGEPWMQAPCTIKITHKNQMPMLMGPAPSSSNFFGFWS
Chain of recombinant mammalian DGKα (P51556 whole entry): as above

effect of sulfur donor on TH071 labeling of DGKα (competitive ABPP) (recombinant rat DGKα [1]): these results were recapitulated
decrease of DGKα activity (recombinant rat DGKα [3]; 1 μM sulfur donor): 30%
decrease of DGKα activity (recombinant rat DGKα [3]; 10 μM sulfur donor): 40%
SMILES: [Na+].[Na+].[S-]SS[S-] [Na2S4]
effect on DGK activity in substrate assay (DGK [2]): showed no effect

product formation between azetidine and cysteine [4]: no change was observed
product formation between azetidine and glutathione (ring-opening) [5]: had bound to the cysteine of glutathione
SMILES: C#CCCCN1CC(c2nc3ccccc3[nH]2)C1 [RLM207]

SMILES: C#CCCCN1CC(c2ccc(F)cc2)C1 [TH069]
azetidine reactivity / protein binding (probe labeling) in gel assay [6]: most reactive

SMILES: C#CCCCN1CC(c2cccc(F)c2)C1 [TH070]
azetidine reactivity / protein binding (probe labeling) in gel assay [6]: least reactive

SMILES: C#CCCCN1CC(c2ccccc2F)C1 [TH071]
probe labeling of DGK protein (DGK [7]): failed to label the protein
azetidine reactivity / protein binding (probe labeling) in gel assay [6]: most reactive; also recorded: could not recover probe labeling; also recorded: displayed the best reactivity
enrichment of azetidine-bound peptides (HEK lysates; 25 μM, HEK lysates): not optimal
identification of azetidine-tagged proteins by LC-MS/MS (HEK lysates; 0.5 mM TH071, 3 hrs, HEK lysates): identified multiple azetidine-tagged proteins
residue type modified by the azetidine compound (HEK lysates; MS2 site localisation, FIG. 5): binds to cysteine residues
number of enriched peptides unique to the azetidine compound [8]: four

SMILES: C#CCCCN1CCC1c1cccc(F)c1 (stereo not shown) [TH073]
azetidine reactivity / protein binding (probe labeling) in gel assay [6]: could not recover probe labeling

SMILES: C#CCCCN1CCC1c1ccccc1F (stereo not shown) [TH074]
azetidine reactivity / protein binding (probe labeling) in gel assay [6]: could not recover probe labeling
